For one experiment, the system named is MCF7. The experiment in a line: Cytotoxicity against human MCF7 cells after 3 days by SRB assay. The experiment is classed as functional, cell-based. Conditions: MCF7, 72 h.
A further experiment deals with A549. The experiment in a line: Cytotoxicity against human A549 cells after 3 days by SRB assay. To be noted: A549, 72 h. The experiment is classed as functional, cell-based. In general terms: Sulforhodamine B stains cellular protein and so reports cell mass.

Data on 7 compounds can be found in ChEMBL document CHEMBL1157294, “Rautandiols A and B, pterocarpans and cytotoxic constituents from Neorautanenia mitis” (J Nat Prod, 2006).

The structures appear in SMILES notation. In brackets after ≈: the same amount, converted by molar mass. A value given as a limit tells only on which side of the number the result lay.

A word on the IC50: it is the point on the concentration scale where inhibition reaches its midpoint. Higher therefore signals lower potency. In the case of `C=C(C)[C@H]1Cc2c(ccc3c(=O)c4c(oc23)COc2cc(OC)c(OC)cc2-4)O1` [DEHYDROROTENONE], the IC50 in the experiment with MCF7 and in the experiment with A549 was > 5 µg/mL each time.
`COc1cc(OC)c(-c2coc3cc4occc4cc3c2=O)cc1OC` [ISOELLIPTOL]: the IC50 was found to be 0.8 µg/mL (≈ 2.27 µM) in the experiment with MCF7 and 1.6 µg/mL (≈ 4.54 µM) with A549.
`c1cc2cc3c(cc2o1)OC[C@H]1c2cc4c(cc2O[C@@H]31)OCO4` [NEODULIN]: the IC50 in the experiment with MCF7 and with A549 was > 5 µg/mL each time.
`COc1cc2c(cc1-c1cc3cc4ccoc4cc3oc1=O)OCO2` [PACHYRRIZINE]: the IC50 was 3.6 µg/mL (≈ 10.7 µM) with MCF7 and > 5 µg/mL in the experiment on A549.
Take `CC1(C)Oc2cc3c(cc2CC1O)[C@@H]1Oc2cc(O)ccc2[C@@H]1CO3` (some centres undefined) [RAUTANDIOL A]: the IC50 in the experiment on MCF7 and in the experiment on A549 was > 5 µg/mL in each case.
For `CC(C)(O)C1Cc2cc3c(cc2O1)OC[C@H]1c2ccc(O)cc2O[C@@H]31` (some centres undefined) [RAUTANDIOL B], the IC50 in the experiment with MCF7 and with A549 was > 5 µg/mL each time.
For the compound `C=C(C)[C@H]1Cc2c(ccc3c2O[C@@H]2COc4cc(OC)c(OC)cc4[C@@H]2C3=O)O1` [ROTENONE], the IC50 in the experiment on MCF7 worked out at 0.008 µg/mL (≈ 0.0203 µM); with A549, 0.04 µg/mL (≈ 0.101 µM).
